Assay results taken from patent US20030220300A1, “Reduction of hair growth” (priority 2002, published 2003).

Key:
[1] = system: Golden Syrian hamster flank organs (hair growth); assay: Golden Syrian hamster assay (hair mass assay); assay type: in vivo; conditions: topical, three weeks
Text: Golden Syrian Hamster Assay
Male intact Golden Syrian hamsters are considered acceptable models for human beard hair growth in that they display oval shaped flank organs, one on each side, each about 8 mm. in major diameter. These organs produce fine light colored hair typical of the animal pelage found on the body. In response to androgens the flank organs produce dark coarse hair similar to male human beard hair. To evaluate the effectiveness of a composition in reducing hair growth, the flank organs of each of a group of hamsters are depilated by applying a thioglycolate based chemical depilatory (Surgex) and/or shaved. To one organ of each animal 10 μl. of vehicle alone once a day is applied, while to the other organ of each animal an equal amount of vehicle containing the ligand under evaluation is applied. After three weeks of topical applications (one application per day for five days a week), the flank organs are shaved and the amount of recovered hair (hair mass) from each is weighed. Percent-reduction of hair growth is calculated by subtracting the hair mass (mg) value of the test compound treated side from the hair mass value of the vehicle treated side; the delta value obtained is then divided by the hair mass value of the vehicle treated side, and the resultant number is multiplied by 100.
The above-described assay will be referred to herein as the “Golden Syrian hamster” assay or “hair mass” assay. Preferred compositions provide a reduction in hair growth of at least about 15% and more preferably at least about 35%, when tested in the Golden Syrian hamster assay.

[2] = system: Human hair follicles in growth phase (anagen); assay: Human hair follicle growth assay; assay type: cell-based; conditions: for % Reduction of human hair follicle growth / Hair follicle length increase (mm) Treated: day 0 to day 7 (Table II)
Text: Human Hair Follicle Growth Assay
Tissue source—Human skin was obtained from a plastic surgeon as a by-product of face-lift procedures. Immediately after removal, the skin was placed in Williams E medium containing antibiotics and refrigerated. The Williams E medium is a commercially obtained medium which has been formulated with essential nutrients for maintaining viability of tissues or cells such as of hair follicle in an in-vitro environment.
Hair Follicle Isolation and Culture—Human hair follicles in growth phase (anagen) were isolated from face-lift tissue (obtained from plastic surgeons) under dissecting scope using a scalpel and watchmakers forceps. The skin was sliced into thin strips exposing 2-3 rows of follicles that could readily be dissected. Follicles were placed into 0.5 ml William's E medium (Life Technologies, Gaithersburg, Md.) supplemented with 2 mM L-glutamine, 10 μg/ml insulin, 10 ng/ml hydrocortisone, 100 units of penicillin, 0.1 mg/ml streptomycin and 0.25 μg/ml amphotericin B. The follicles were incubated in 24-well plates (1 follicle/well) at 37° C. in an atmosphere of 5% CO2 and 95% air. Thiazolidinediones are dissolved into dimethyl sulfoxide as 100-fold stock solution. The control hair follicles were treated with dimethyl sulfoxide without thiazolidinedione. The follicles were photographed in the 24-well plates under the dissecting scope at a power of 10×. Typically, image recordings were made on day 0 (day follicles were placed in culture), and again on day 7. The length of Hair follicle was assessed using an image analysis software system (Jasc Image Robot). The growth of hair fiber was calculated by the subtracting the follicle length on day 0 from that determined on day 7.

CC1(COc2ccc(CC3SC(=O)NC3=O)cc2)CCCCC1 (centres unmarked) [Ciglitazone, ciglitazone]
% Reduction of hamster hair mass ([1]; dose 1.3%, vehicle A): 22.7 ± 5.8%
Treated (mg) hair mass ([1]; dose 1.3%, vehicle A): 2.78 ± 0.23 mg
% Reduction of hamster hair mass ([1]; dose 1.3%, vehicle A, listed as ciglitazone): 22.7%
% Reduction ([2]; 3 μM (Table III)): 38.2 ± 23.0%
Hair follicle length increase (mm) ([2]; 3 μM (Table III)): 1.34 ± 0.5 mm
% Reduction ([2]; 6 μM (Table III)): 75.1 ± 13.8%
Hair follicle length increase (mm) ([2]; 6 μM (Table III)): 0.54 ± 0.3 mm
% Reduction ([2]; 9 μM (Table III)): 90.8 ± 9.2%
Hair follicle length increase (mm) ([2]; 9 μM (Table III)): 0.2 ± 0.2 mm
% Reduction of human hair follicle growth ([2]; 20 μM): 87.5 ± 15.6%
Hair follicle length increase (mm) Treated ([2]; 20 μM): 0.19 ± 0.24 mm

CCc1ccc(CCOc2ccc(CC3SC(=O)NC3=O)cc2)nc1 (centres unmarked) [Pioglitazone, pioglitazone]
% Reduction of hamster hair mass ([1]; dose 5%, vehicle B): 47.7 ± 4.1%
Treated (mg) hair mass ([1]; dose 5%, vehicle B): 1.32 ± 0.06 mg
% Reduction of hamster hair mass ([1]; dose 5%, vehicle B, listed as pioglitazone): 47.7%
% Reduction ([2]; 15 μM (Table IV)): 30.2 ± 19.8%
Hair follicle length increase (mm) ([2]; 15 μM (Table IV)): 0.67 ± 0.19 mm
% Reduction ([2]; 30 μM (Table IV)): 76.0 ± 16.7%
Hair follicle length increase (mm) ([2]; 30 μM (Table IV)): 0.23 ± 0.16 mm
% Reduction ([2]; 45 μM (Table IV)): 89.6 ± 14.6%
Hair follicle length increase (mm) ([2]; 45 μM (Table IV)): 0.1 ± 0.14 mm
% Reduction of human hair follicle growth ([2]; 50 μM): 86.7 ± 6.2%
Hair follicle length increase (mm) Treated ([2]; 50 μM): 0.15 ± 0.07 mm

CN(CCOc1ccc(CC2SC(=O)NC2=O)cc1)c1ccccn1 (centres unmarked) [Rosiglitazone, rosiglitazone]
% Reduction of hamster hair mass ([1]; dose 10%, vehicle A): 40.0 ± 5.0%
Treated (mg) hair mass ([1]; dose 10%, vehicle A): 1.78 ± 0.71 mg
% Reduction of hamster hair mass ([1]; dose 10%, vehicle A, listed as rosiglitazone): 40%
% Reduction ([2]; 20 μM (Table V)): 34.8 ± 20.6%
Hair follicle length increase (mm) ([2]; 20 μM (Table V)): 0.92 ± 0.29 mm
% Reduction ([2]; 40 μM (Table V)): 47.5 ± 10.6%
Hair follicle length increase (mm) ([2]; 40 μM (Table V)): 0.74 ± 0.15 mm
% Reduction ([2]; 60 μM (Table V)): 63.1 ± 14.1%
Hair follicle length increase (mm) ([2]; 60 μM (Table V)): 0.52 ± 0.2 mm
% Reduction of human hair follicle growth ([2]; 100 μM): 75.2 ± 16.5%
Hair follicle length increase (mm) Treated ([2]; 100 μM): 0.24 ± 0.16 mm

Cc1c(C)c2c(c(C)c1O)CCC(C)(COc1ccc(CC3SC(=O)NC3=O)cc1)O2 (centres unmarked) [Troglitazone, troglitazone]
% Reduction of human hair follicle growth ([2]; 100 μM): 91.5 ± 6.2%
Hair follicle length increase (mm) Treated ([2]; 100 μM): 0.11 ± 0.08 mm

O=C1NC(=S)SC1=Cc1cc([N+](=O)[O-])ccc1Sc1ccccc1 [5-(5-nitro-2-phenylsulfanyl-benzylidene)-2-thioxo-thiazolidin-4-one]
% Reduction ([2]; 0.1 μM (Table VI)): 66.9 ± 15.2%
Hair follicle length increase (mm) ([2]; 0.1 μM (Table VI)): 0.37 ± 0.17 mm
% Reduction ([2]; 0.5 μM (Table VI)): 85.7 ± 15.2%
Hair follicle length increase (mm) ([2]; 0.5 μM (Table VI)): 0.16 ± 0.17 mm
% Reduction ([2]; 1.0 μM (Table VI)): 93.7 ± 7.1%
Hair follicle length increase (mm) ([2]; 1.0 μM (Table VI)): 0.07 ± 0.08 mm
% Reduction of human hair follicle growth ([2]; 10 μM): 94.6 ± 3.9%
Hair follicle length increase (mm) Treated ([2]; 10 μM): 0.11 ± 0.08 mm
Effect on human hair growth (in words) ([2]; human hair follicle growth assay, summary of Table II): can reduce human hair growth
